From US20210170052A1, “THERAPEUTIC METHODS AND COMPOSITIONS FOR SOLID DELIVERY” (Presage Biosciences, Inc., priority 2010, published 2021)

Key:
mouse tumor = experiment: Spatially restricted injection into a mouse tumor with indicator dyes (apoptosis signal imaging); type: in vivo; conditions: excitation 640 nm, emission 720 nm of the dye, versus control
Method: FIG. 14 depicts the use of various indicator dyes according to the method, to monitor spatially restricted delivery of compounds and resulting localized effects on regions of a tumor. A mouse tumor was injected with 1. doxorubicin; and 2. a control. Panel A illustrates excitation at 640 nm and emission at 800 nm of the dye. Panel B illustrates the doxorubicin signal (3.) observed after excitation at 500 nm and emission at 600 nm of doxorubicin. Panel C illustrates an apoptosis signal (4.) observed after excitation at 640 nm and emission at 720 nm of the dye.

lymphoma tumor = experiment: Doxorubicin delivered to a lymphoma tumor using a porous tube; fluorescence and brightfield microscopy of tumor slices; type: in vivo; conditions: porous tube delivery, three tumor depths
Source text: Doxorubicin was delivered to a lymphoma tumor using a porous tube of the method. The tumor was then excised and sectioned. […] Regions of doxorubicin fluorescence and cell death are localized to a zone within the tumor slice, reflecting spatially constrained doxorubicin delivery.

[1] = system: Intracranial medulloblastoma model (conditional Patchedl null) mice; experiment: Survival of intracranial medulloblastoma model mice; type: in vivo, mouse; conditions: injected daily with 20 mg/kg, monitored for 50 days, versus vehicle only
Method: The results of the in vivo experiment depicted in FIG. 12 predicted that Shh antagonists would have a positive effect on a mouse model of cancer. Intracranial medulloblastoma model (conditional Patchedl null) mice used in this experiment develop medulloblastoma with an early onset and 100% penetrance. Accordingly, mice were injected daily with 20 mg/kg of either A) vehicle plus IPI-926 (n=12); or B) vehicle only (n=11). The mice were monitored for 50 days for survival, and the results depicted in FIG. 13.

SMILES	apoptosis signal (mouse tumor)	cell death in tumor slices (lymphoma tumor)	survival [1]
COc1cccc2c1C(=O)c1c(O)c3c(c(O)c1C2=O)C[C@@](O)(C(=O)CO)C[C@@H]3O[C@H]1C[C@H](N)[C@H](O)[C@H](C)O1 [Doxorubicin]	apoptosis overlaps with the region that received doxorubicin	Cell death was observed in a localized area	
CC1=C2C[C@H]3[C@@H](CC[C@@H]4C[C@H](NS(C)(=O)=O)CC[C@@]43C)[C@@H]2CC[C@@]2(C1)O[C@@H]1C[C@H](C)CN[C@H]1[C@H]2C [IPI-926]			significantly increased survival
